For experiment [1], the system named is monocytes isolated from human peripheral blood. The experiment is described as follows: Internalization capacity (endocytosis, pinocytosis, macropinocytosis) of differentiated monocytes. It is filed as cell-based. Particulars: control = 100%. As for the experimental part:
The “control” and “LPC” cells used in this analysis are those obtained after 6 days of differentiation according to the protocol described in example 1. These cells are incubated at 37° C.: • for 30 minutes with 1 mg/ml of FITC-T70-Dextran (Sigma) in order to estimate the capacity of these cells for internalization by endocytosis, • for 30 minutes with 1 mg/ml of Lucifer Yellow (ref. L0259, Sigma, St Quentin-Fallavier, France) in order to estimate the capacity of these cells for internalization by pinocytosis, • for 3 hours with carboxylate-modified yellow-green FluoSpheres (trade name, 0.45 μm, Molecular Probes, Leiden, The Netherlands) in order to estimate the capacity of these cells for internalization by macropinocytosis.
The internalization is stopped on ice with a cold PBS buffer containing 0.1% of BSA (Bovine Serum Albumin) and 0.05% of NaN3. The “control” and “LPC” cells are washed 3 times at 4° C. in this same buffer and the fluorescence is quantified by FACScalibur (trade name, Becton Dickinson).

The target of experiment [2] is T1, PPARγ (Homo sapiens, UniProt P37231).
T1 construct: After having harvested the cells, the nuclear proteins were extracted with the Nuclear extract Kit (Sigma); endogenous in cells; host or cells: monocytes undergoing differentiation into dendritic cells (nuclear extract)
T1 sequence (P37231 1-505): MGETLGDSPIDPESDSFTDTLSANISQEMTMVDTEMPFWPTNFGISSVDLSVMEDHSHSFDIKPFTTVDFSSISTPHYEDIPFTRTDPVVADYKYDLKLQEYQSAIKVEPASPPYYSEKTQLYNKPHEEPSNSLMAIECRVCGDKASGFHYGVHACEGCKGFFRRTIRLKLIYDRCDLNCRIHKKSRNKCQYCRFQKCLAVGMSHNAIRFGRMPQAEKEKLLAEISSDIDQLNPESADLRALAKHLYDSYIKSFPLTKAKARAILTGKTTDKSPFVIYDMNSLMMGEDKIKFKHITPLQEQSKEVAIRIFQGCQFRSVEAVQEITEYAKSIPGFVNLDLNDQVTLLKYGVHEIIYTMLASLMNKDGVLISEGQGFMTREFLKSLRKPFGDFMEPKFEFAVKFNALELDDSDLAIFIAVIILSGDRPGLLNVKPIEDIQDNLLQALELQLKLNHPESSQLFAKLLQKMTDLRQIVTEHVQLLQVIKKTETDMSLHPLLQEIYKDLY
Put plainly: PPAR binding activity by gel shift on nuclear proteins of treated monocytes. It is filed as cell-based. The protocol:
(§1) Next, the inventors investigated the transcription factors involved in the maturation process induced by LPC. In order to determine whether PPARs are involved in the LPC-induced maturation, the ability of the two transcription factors PPARγ and PPARδ to bind was analyzed using the gel shift technique. 3 isotypes of PPAR nuclear receptors (peroxisome proliferator-activated receptor) exist: α, γ and δ. PPARγs are the targets for molecules of the thiazolidinedione class, such as ciglitizone, used in the treatment of type II diabetes. PPARδs have a broader expression and can be repressors of PPARγs. The monocytes undergoing differentiation were incubated for two hours with a solution of LPC (40 μM) (“LPC” cells). “Control” cells are also obtained in the absence of LPC in the culture medium. After having harvested the cells, the nuclear proteins were extracted with the Nuclear extract Kit (Sigma). The nuclear proteins were then brought into contact with a ratioactively labeled probe containing a response element recognized by PPARs. […] The PPAR binding activity was determined by measuring the intensity of these bands. These activities are expressed as a percentage with respect to the “control” cells. […]
(§2) The activity of the PPARγ and PPARδ transcription factors was measured in these cells by the gel shift technique, as described above.
(§3) INTRALIPID® regulates PPARs in vitro. […] The cells were harvested after 1 h, 2 h or 8 h of incubation with INTRALIPID®, the nuclear proteins were extracted and the activity of PPARγ and PPARδ was determined as described in example 6.
(§4) Secondly, a solution of INTRALIPID® (50 μg/ml of phospholipids) was added to the culture medium on the 5th day of monocyte differentiation, 15 minutes before the addition of a solution of LPC (40 μM) (“LPC+Intralipid” cells). […] The cells were harvested after 2 h of incubation, the nuclear proteins were extracted and the activity of PPARγ and PPARδ was determined as described in example 6.

Experiment [3] deals with PPARδ. Described as above. It is filed as cell-based, human. The protocol: as §1, §2, §3, §4
Experiment [4] deals with BALB/c mice. Put plainly: Delayed contact hypersensitivity to the hapten DNFB (ear edema). It is filed as in vivo, mouse. Particulars: 500 nmol LPC on back 10 minutes before DNFB sensitization, 48 h after elicitation. The source says:
LPC can induce a CD8+ T lymphocyte response in vivo. In this example, a test for delayed contact hypersensitivity to haptens was used. In this model, BALB/c mice are sensitized by application of a hapten, DNFB (1-fluoro-2,4-dinitrobenzene, 0.5% solution in 1:1 olive oil/acetone), to the back. Five days later, a non-irritant dose of DNFB (0.2% solution in 1:1 olive oil/acetone) is applied to the left ear, whereas the right ear receives the solvent. In this elicitation phase, CD8^+ T lymphocytes specific for the haptenized proteins are recruited and infiltrate the ear, secreting γIFN and producing an edema.
A “control” batch of mice was sensitized with DNFB alone and another batch (“LPC” mice) received 500 nmol of LPC by application to the skin of the back of 20 μl of an ethanolic solution of LPC, 10 minutes before the application of DNFB. Five days later, the two batches were treated in the same way for the elicitation phase and the thickening of the ears was measured using a micrometer 48 h after this application.

The mark [5] stands for this setting: Table 6, LPC 40 μM, two hours, percentage with respect to control cells.
Setting [6] is: Table 16, Intralipid 50 μg/ml phospholipids 15 minutes before LPC 40 μM, 2 h, control = 100%.

Consider L-α-lysophosphatidylcholine [LPC], for which, in experiment [1] (FITC-T70-Dextran 30 minutes), the “Capacity for internalization by endocytosis” value came to 53%. Moreover, in experiment [1] (FluoSpheres 3 hours), the “Capacity for internalization by macropinocytosis” value was found to be 66%. Besides, the “Capacity for internalization by pinocytosis” value in experiment [1] (Lucifer Yellow 30 minutes) is listed as 49%. The PPARγ binding activity in experiment [2] (setting [5]) is listed as 0%. Further, the PPARγ activity in experiment [2] (setting [6]) is given as 1%. The PPARδ binding activity in experiment [3] (setting [5]) came out at 263%. Also, in experiment [3] (setting [6]), the PPARδ activity is recorded as 160%. For the same substance, the “Thickening of the left ear” value in experiment [4] (left ear receives DNFB 0.2%) turned out to be 149 ± 31 μm. For the same substance, in experiment [4] (right ear receives solvent), the “Thickening of the right ear” value amounted to 0 ± 3 μm.

(Values after patent US7368287B2, “Use of L-α-lysophosphatidylcholine to obtain the differentiation of monocytes into mature dendritic cells in vitro” (Biomerieux, priority 2002, dated 2008).)
